Earlier results on 12 molecules are cited in US20050215521A1, “Modafinil combination therapy for improving sleep quality” (priority 2003, published 2005).

Structures can show the parent of a compound that is named as a salt.

One data set has as its system mice. Conditions: reference agents, scores below 40 of 60 denote behavioral depression.
For data set [1] the following is noted: oral.
For data set [2], the system named is L-glutamate 1-carboxylase. Particulars: at concentrations of 10^−3 M.
The target in data set [3] is GABA:2-oxo-glutarate aminotransferase (Homo sapiens, UniProt P80404). Particulars: at concentrations of 10^−3 M.
The test system of another data set is GABA uptake system. Particulars: at concentrations of 5×10^4 M.
The conditions of data set [4]: in vivo.

GABA:2-oxo-glutarate aminotransferase, sequence (P80404 29-500): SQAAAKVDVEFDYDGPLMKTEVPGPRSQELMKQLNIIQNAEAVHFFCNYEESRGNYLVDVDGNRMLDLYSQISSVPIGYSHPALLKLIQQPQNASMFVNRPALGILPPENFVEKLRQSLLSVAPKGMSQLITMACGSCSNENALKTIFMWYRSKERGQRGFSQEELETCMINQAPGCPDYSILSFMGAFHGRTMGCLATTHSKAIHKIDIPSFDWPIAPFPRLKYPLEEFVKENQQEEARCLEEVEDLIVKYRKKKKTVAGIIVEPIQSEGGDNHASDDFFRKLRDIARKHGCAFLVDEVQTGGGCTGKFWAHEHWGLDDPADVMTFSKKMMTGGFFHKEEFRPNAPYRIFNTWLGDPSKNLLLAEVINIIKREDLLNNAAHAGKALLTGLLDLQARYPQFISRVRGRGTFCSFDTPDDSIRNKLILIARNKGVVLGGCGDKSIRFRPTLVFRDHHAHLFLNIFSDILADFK

For the molecule `CCC1(c2ccccc2)CCC(=O)NC1=O` (stereo not shown) [glutethimide], the ED100 in the data set on mice is given as 300 mg/kg. Turning to `O=C(CCCN1CCC(O)(c2ccc(Cl)cc2)CC1)c1ccc(F)cc1` [haloperidol], in the data set on mice, the ED100 is reported as 10 mg/kg. With `Cc1ccc(-c2nc3ccc(C)cn3c2CC(=O)N(C)C)cc1` [zolpidem, N,N,6-trimethyl-2-(4-methylphenyl)-imidazo[1,2-s]pyridine-3-acetamide], in data set [1], the “elimination half-life (mean)” value is 2.4 h. Besides, the duration of action entry in data set [1] (hypnotic action) is reported as “up to 6 hours”. With `CCCC(C)C1(CC)C(=O)NC(=O)NC1=O` (stereo not shown) [pentobarbital], the ED100 in the data set on mice is 100 mg/kg.

For the molecule `NC(=O)C[S+]([O-])C(c1ccccc1)c1ccccc1` (stereo not shown) [Modafinil, 2-[(Diphenylmethyl)sulfinyl]-N-acetamide], the solubility in methanol entry is reported as “sparingly or slightly soluble” and the solubility in water entry is recorded as “insoluble”. In addition, the solubility in acetone entry (acetone) is on record as “sparingly or slightly soluble”. Moreover, the solubility in cyclohexane entry (cyclohexane) is reported as “insoluble”. Turning to `Oc1noc2c1CCNC2` [gaboxadol, 4,5,6,7-tetrahydroisoxazolo[5,4-c]pyridin-3-ol], the “interaction with L-glutamate 1-carboxylase” value in data set [2] was “did not interact”. For the same molecule, the “interaction with GABA:2-oxo-glutarate aminotransferase” value in data set [3] was “did not interact”. Moreover, the “interaction with the GABA uptake system” value in the data set on GABA uptake system is given as “did not interact”. Consider `CP(=O)(O)CCCN` [SKF 97541, 3-aminopropyl(methyl)phosphinic acid], for which the solubility in water result is “readily soluble”. In addition, the “solubility in dilute aqueous base” value (dilute aqueous base) is “readily soluble”. Take zopiclone: in the data set on plasma proteins, the “binding to plasma proteins” value was “not highly bound”. For the same molecule, the “absorption from the stomach” value in data set [4] is “well absorbed”.

`COC(=O)[C@H]1[C@H]2C[C@@H]3c4[nH]c5cc(OC)ccc5c4CCN3C[C@H]2C[C@@H](OC(=O)c2cc(OC)c(OC)c(OC)c2)[C@@H]1OC` [reserpine]: the ED100 in the data set on mice is 50 mg/kg.

As for `Cc1ccc(-c2nc3ccc(C)cn3c2CC(=O)N(C)C)cc1` [zolpidem tartrate], the solubility in methanol entry is recorded as “sparingly soluble” and the solubility in water result is listed as “slightly soluble”. For the setting “methylene chloride”, the “solubility in methylene chloride” value was “practically insoluble”. Turning to `CCCC(C)(COC(N)=O)COC(N)=O` [meprobamate], in the data set on mice, the ED100 is recorded as 300 mg/kg. For `CN1C(=O)CN=C(c2ccccc2)c2cc(Cl)ccc21` [diazepam, 7-chloro-1,3-dihydro-1-methyl-5-phenyl-2H-1,4-benzodiazepin-2-one], in the data set on mice, the ED100 is given as 50 mg/kg.
